Patent US20240336572A1, “SUBSTITUTED INDAZOLE PROPIONIC ACID DERIVATIVE COMPOUNDS AND USES THEREOF” (Pfizer Inc., priority 2023, published 2024)

How the values were obtained:
AMPK 111 = target: T1, AMPK 111 (Homo sapiens, UniProt Q13131+Q9Y478); test: Biochemical profiling of AMPK activators by AMPK111 (HTRF/TR-FRET assay, SAMS peptide, PP2A dephosphorylation protection); settings: for EC50: phosphorylated AMPK 111 (α1β1δ1 as printed), 11 point dilution, duplicate, 4-parameter fit; for Emax: phosphorylated AMPK 111, maximal activation
T1 construct: open reading frames encoding the full-length α1, β1 and δ1 subunits of human AMPK; made in house; host or cells: E. coli BL21-CodonPlus (DE3)-RIPL, pET-14b
Procedure: (§1) The biochemical EC50 (half-maximal concentration required for full activation) of compounds for the activation of AMPK was evaluated by HTRF assay using LANCE Ultra ULight-Acetyl-CoA Carboxylase (SAMS) peptide (commercially available, Perkin Elmer catalog TRF0133-M).
Following a fifteen-minute room temperature incubation, 5 μL of 30 nM protein phosphatase PP2A (isolation detailed above) diluted in the assay buffer was added to the plate, to dephosphorylate pThr172 of AMPK. […] The reaction was terminated after 60 minutes incubation at room temperature, by the addition of 5 μL of stop and detection cocktail, which consisted of 1× Perkin Elmer Lance buffer (Perkin Elmer catalog number CR97-100), 40 mM EDTA (Thermo Fisher catalog number BP2482-100), and 2 nM Eu-anti-Acetyl CoA Carboxylase [pSer70] antibody (Perkin Elmer, TRF0208-M).

AMPK 221 = target: T2, AMPK 221 (Homo sapiens, UniProt O43741+P54646); test: Biochemical profiling of AMPK activators by AMPK221 (HTRF/TR-FRET assay, SAMS peptide, PP2A dephosphorylation protection); settings: for EC50: phosphorylated AMPK 221 (α2β2δ1), 11 point dilution, duplicate, 4-parameter fit; for Emax: phosphorylated AMPK 221, maximal activation
T2 construct: open reading frames encoding the full-length α2, β2 and δ1 subunits of human AMPK; made in house; host or cells: E. coli BL21-CodonPlus (DE3)-RIPL, pET-14b
Procedure: as §1
The reaction was terminated after 60 minutes incubation at room temperature by the addition of 5 μL of stop and detection cocktail, which consisted of 1× Perkin Elmer Lance buffer (Perkin Elmer catalog number CR97-100), 40 mM EDTA (Thermo Fisher catalog number BP2482-100), and 2 nM Eu-anti-Acetyl CoA Carboxylase [pSer70] antibody (Perkin Elmer, TRF0208-M). Plates were spun at 1000 RPM, 10 seconds.

T1 sequence (Q13131 whole entry): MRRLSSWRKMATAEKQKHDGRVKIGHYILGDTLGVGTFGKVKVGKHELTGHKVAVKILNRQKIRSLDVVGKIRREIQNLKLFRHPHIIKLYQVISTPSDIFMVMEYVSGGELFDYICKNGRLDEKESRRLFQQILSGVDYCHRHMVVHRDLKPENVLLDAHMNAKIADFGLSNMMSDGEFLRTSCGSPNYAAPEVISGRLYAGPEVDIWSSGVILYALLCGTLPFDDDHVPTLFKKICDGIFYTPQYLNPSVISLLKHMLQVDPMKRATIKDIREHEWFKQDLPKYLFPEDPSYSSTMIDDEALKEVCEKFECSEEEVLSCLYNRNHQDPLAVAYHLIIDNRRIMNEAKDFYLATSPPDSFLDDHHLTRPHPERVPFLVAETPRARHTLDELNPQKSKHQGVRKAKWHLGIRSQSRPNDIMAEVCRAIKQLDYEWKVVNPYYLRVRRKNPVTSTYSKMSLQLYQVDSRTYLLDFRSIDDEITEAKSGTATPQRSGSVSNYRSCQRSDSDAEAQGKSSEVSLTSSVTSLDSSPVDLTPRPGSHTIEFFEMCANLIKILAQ
T1 sequence (Q9Y478 whole entry): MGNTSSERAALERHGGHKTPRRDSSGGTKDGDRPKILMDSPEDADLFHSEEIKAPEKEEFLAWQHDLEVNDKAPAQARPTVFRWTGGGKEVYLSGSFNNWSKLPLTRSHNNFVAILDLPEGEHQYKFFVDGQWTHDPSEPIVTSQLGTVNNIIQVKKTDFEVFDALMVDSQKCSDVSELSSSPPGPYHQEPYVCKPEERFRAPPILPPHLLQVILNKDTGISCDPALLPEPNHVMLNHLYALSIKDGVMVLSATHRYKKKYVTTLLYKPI
T1 sequence (P54619 whole entry partner): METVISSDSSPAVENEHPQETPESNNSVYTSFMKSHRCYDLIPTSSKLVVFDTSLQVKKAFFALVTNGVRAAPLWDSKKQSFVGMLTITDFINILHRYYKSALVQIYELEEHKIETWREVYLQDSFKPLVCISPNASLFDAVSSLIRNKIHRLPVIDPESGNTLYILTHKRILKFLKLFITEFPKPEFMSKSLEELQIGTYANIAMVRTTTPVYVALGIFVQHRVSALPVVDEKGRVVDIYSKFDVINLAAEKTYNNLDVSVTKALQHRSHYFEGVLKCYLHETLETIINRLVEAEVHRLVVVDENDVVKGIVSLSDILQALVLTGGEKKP
T2 sequence (P54646 whole entry): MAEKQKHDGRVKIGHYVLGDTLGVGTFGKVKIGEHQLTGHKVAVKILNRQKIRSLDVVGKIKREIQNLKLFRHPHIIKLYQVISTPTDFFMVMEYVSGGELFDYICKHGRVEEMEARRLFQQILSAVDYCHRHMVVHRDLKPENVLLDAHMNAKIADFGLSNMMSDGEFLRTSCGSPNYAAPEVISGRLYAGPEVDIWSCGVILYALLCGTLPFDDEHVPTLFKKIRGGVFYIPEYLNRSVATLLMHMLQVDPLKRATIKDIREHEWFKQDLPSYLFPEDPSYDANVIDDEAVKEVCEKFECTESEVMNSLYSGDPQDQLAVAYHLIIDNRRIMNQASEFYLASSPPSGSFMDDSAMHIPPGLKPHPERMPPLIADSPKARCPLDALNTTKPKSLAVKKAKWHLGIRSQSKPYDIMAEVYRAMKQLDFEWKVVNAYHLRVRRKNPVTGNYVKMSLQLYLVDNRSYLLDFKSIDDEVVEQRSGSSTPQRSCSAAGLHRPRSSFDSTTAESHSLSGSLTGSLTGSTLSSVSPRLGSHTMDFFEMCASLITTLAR
T2 sequence (O43741 whole entry): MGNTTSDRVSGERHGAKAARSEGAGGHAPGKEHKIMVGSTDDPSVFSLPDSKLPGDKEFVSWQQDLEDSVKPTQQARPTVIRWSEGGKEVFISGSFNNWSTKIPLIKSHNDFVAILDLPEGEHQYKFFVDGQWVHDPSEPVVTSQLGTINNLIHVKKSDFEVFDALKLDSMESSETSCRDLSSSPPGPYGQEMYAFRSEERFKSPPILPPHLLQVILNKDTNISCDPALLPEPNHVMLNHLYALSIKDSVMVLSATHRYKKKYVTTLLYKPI
T2 sequence (P54619 whole entry partner): as the sequence (P54619 whole entry partner) above

| SMILES | EC50 (AMPK 111) [nM] | Emax (AMPK 111) [%] | EC50 (AMPK 221) [nM] | Emax (AMPK 221) [%] |
| --- | --- | --- | --- | --- |
| COc1cccc(-c2ccc(-c3cc4c(CCC(=O)O)n[nH]c4cc3Cl)cc2)c1O [Example 2, 3-(6-Chloro-5-(2′-hydroxy-3′-methoxy-[1,1′-biphenyl]-4-yl)-1H-indazol-3-yl)propanoic acid] | 29 | 80 | 34 | 66 |
| O=C(O)CCc1n[nH]c2cc(Cl)c(-c3ccc(-c4ccccc4O)cc3F)cc12 [Example 3, 3-(6-Chloro-5-(3-fluoro-2′-hydroxy-[1,1′-biphenyl]-4-yl)-1H-indazol-3-yl)propanoic acid] | 189 | 83 | 528 | 61 |
| O=C(O)CCc1c[nH]c2cc(Cl)c(-c3ccc(-c4ccccc4O)cc3)cc12 [Example 4, 3-(6-Chloro-5-(2′-hydroxy-[1,1′-biphenyl]-4-yl)-1H-indol-3-yl)propanoic acid] | 62 | 74 | 665 | 34 |
| NC(=O)c1ccc(-c2ccc(-c3cc4c(CCC(=O)O)n[nH]c4cc3Cl)cc2)cc1 [Example 5, 3-(5-(4′-Carbamoyl-[1,1′-biphenyl]-4-yl)-6-chloro-1H-indazol-3-yl)propanoic acid] | 89 | 59 | 37 | 62 |
| NC(=O)c1ccc(-c2ccc(-c3cc4c(CCC(=O)O)n[nH]c4cc3Cl)cc2)c(O)c1 [Example 6, 3-(5-(4′-Carbamoyl-2′-hydroxy-[1,1′-biphenyl]-4-yl)-6-chloro-1H-indazol-3-yl)propanoic acid] | 6 | 64 | 4 | 53 |
| O=C(O)CCc1n[nH]c2cc(Cl)c(-c3ccc(-c4ccncc4O)cc3)cc12 [Example 7, 3-(6-Chloro-5-(4-(3-hydroxypyridin-4-yl)phenyl)-1H-indazol-3-yl)propanoic acid] | 90 | 71 | 359 | 57 |
| NCc1ccc(-c2ccc(-c3cc4c(CCC(=O)O)n[nH]c4cc3Cl)cc2)c(O)c1 [Example 8, 3-(5-(4′-(Aminomethyl)-2′-hydroxy-[1,1′-biphenyl]-4-yl)-6-chloro-1H-indazol-3-yl)propanoic acid] | 26 | 75 | 38 | 56 |

The next lines start with the values.

| EC50 (AMPK 111) [nM] | Emax (AMPK 111) [%] | EC50 (AMPK 221) [nM] | Emax (AMPK 221) [%] | SMILES |
| --- | --- | --- | --- | --- |
| 11 | 90 | 41 | 68 | NS(=O)(=O)c1ccc(-c2ccc(-c3cc4c(CCC(=O)O)n[nH]c4cc3Cl)cc2)c(O)c1 [Example 9, 3-(6-chloro-5-(2′-hydroxy-4′-sulfamoyl-[1,1′-biphenyl]-4-yl)-1H-indazol-3-yl)propanoic acid] |
| 29 | 76 |  |  | COCc1ccc(-c2ccc(-c3cc4c(CCC(=O)O)n[nH]c4cc3Cl)cc2)c(O)c1 [Example 10, 3-(6-chloro-5-(2′-hydroxy-4′-(methoxymethyl)-[1,1′-biphenyl]-4-yl)-1H-indazol-3-yl)propanoic acid] |
| 53 | 62 | 60 | 44 | O=C(O)CSc1n[nH]c2cc(Cl)c(-c3ccc(-c4ccccc4O)cc3)cc12 [Example 11, 2-((6-chloro-5-(2′-hydroxy-[1,1′-biphenyl]-4-yl)-1H-indazol-3-yl)thio)acetic acid] |
| 16 | 72 | 62 | 56 | CN(C)C(=O)c1ccc(-c2ccc(-c3cc4c(CCC(=O)O)n[nH]c4cc3Cl)cc2)c(O)c1 [Example 12, 3-(6-chloro-5-(4′-(dimethylcarbamoyl)-2′-hydroxy-[1,1′-biphenyl]-4-yl)-1H-indazol-3-yl)propanoic acid] |
| 21 | 86 | 69 | 67 | NC(c1ccc(-c2ccc(-c3cc4c(CCC(=O)O)n[nH]c4cc3Cl)cc2)c(O)c1)C(F)(F)F (stereo not shown) [Example 13, 3-(5-(4′-(1-amino-2,2,2-trifluoroethyl)-2′-hydroxy-[1,1′-biphenyl]-4-yl)-6-chloro-1H-indazol-3-yl)propanoic acid] |
